Laboratory results as given in patent US20110257176A1, “NITROGEN HETEROCYCLE DERIVATIVES AS PROTEASOME MODULATORS” (INSTITUT NATIONAL DE LA SANTE ET DE LA RECHERCHE MEDICALE …, priority 2008, published 2011).
Where a SMILES comes first, the peptide text is derived from it. The star is where a group is joined. Cbz = O=C(OCc1ccccc1)*

What was measured:
[1] = target: T1, rabbit reticulocyte 20S proteasome, chymotrypsin-like (CT-L) activity (UniProt G1T4Q9); test: 20S proteasome chymotrypsin-like (CT-L) activity, Suc-LLVY-AMC hydrolysis; type: biochemical; conditions: rabbit 20S proteasome, pH 8, 37° C.
T1 construct: IC50 on chymotrypsin-like activity; other: rabbit 20S proteasome, pH 8, 37° C; Rabbit erythrocyte 20S proteasome was obtained from Boston Biochem, Cambridge, USA
Experimental: (§1) Rabbit erythrocyte 20S proteasome was obtained from Boston Biochem, Cambridge, USA. The fluorogenic substrates Suc-LLVY-AMC, Boc-LRR-AMC and Z-LLE-βNA used to measure the proteasome activities CT-L, T-L and PA respectively were purchased from Bachem (France). Other reagents and solvents were purchased from commercial sources. Fluorescence was measured using a BMG Fluostar microplate reader.
(§2) Compounds 1-23 were tested for their potential to inhibit the CT-L, T-L and PA activities of the rabbit reticulocyte 20S proteasome. Enzyme activities were determined by monitoring the hydrolysis of the appropriate fluorogenic substrate (λexc=360, λem=465 nm for AMC substrates, and λexc=340, λem=405 nm for the βNA substrate) for 1 h at 37° C.
(§3) In the in vitro screening, each compound was tested in duplicate against the three activities, at 100 μM and 50 μM in the corresponding buffer. The buffer were (pH 8): 50 mM Tris, 150 mM NaCl, 10% (v/v) glycerol, 0.025% (w/v) SDS, and 3% (v/v) DMSO (CT-L and PA activities); 50 mM Tris, 150 mM NaCl, 10% (v/v) glycerol, and 3% (v/v) DMSO (T-L activity).
(§4) The inhibitory activity of compounds is expressed as IC50, which corresponds to the concentration of proteasome inhibitor leading to a loss of activity of 50%. The values of IC50 were calculated by fitting the experimental data to equation 1: % Inhibition=100×(1−Vi/V0)=100 [I]0/(IC50+[I]0), or equation 2: % Inhibition=100 [I]0^nH/(IC50^nH+[I]0^nH), where Vi is the initial rate in the presence of the inhibitor, V0 is the initial rate in the absence of the inhibitor, [I]0 is the inhibitor concentration, nH is the Hill number (FIG. 1).

[2] = test system: HeLa cells; test: Cell viability, XTT assay, HeLa; type: cell-based; conditions: Homo sapiens, 48 h, read-out: EC50, concentration inhibiting cell growth by 50%
Experimental: (§5) The cell survival was determined with the XTT assay. Human cells (HeLa from cervical carcinoma and HEK-293 from epithelial kidney) were obtained from Invitrogen (Cergy-Pontoise, France). The cells were grown at 37° C. in DMEM supplemented with 10% fetal bovine serum (Invitrogen) in a humidified atmosphere of 5% CO2 and 95% air.
(§6) 5×10^3 cells in 100 μL culture medium were exposed for 48 h in 96-well plates to increasing concentrations of compounds: 5-100 μM, final concentration of DMSO is 1% (v/v). The culture medium is then replaced by 100 μL of DMEM F12 culture medium devoid of phenol red and containing a mixture of XTT (0.3 mg/mL) and PMS (8.3 nM) (XTT: 2,3-bis[2-methoxy-4-nitro-5-sulfophenyl-2H-tetrazolium-5-carboxyanilide sodium; PMS: phenazine methosulfate, both purchased from Sigma, Saint Quentin Fallavier, France). Cells were then incubated for 3 h at 37° C.
(§7) During this incubation, the mitochondrial deshydrogenases of viable cells hydrolyzed the tetrazolium cycle of XTT, leading to orange formazan crystals soluble in aqueous solution.
(§8) The orange color was measured at 485 nm using a BMG Fluostar microplate reader.
(§9) In control experiments, cells were treated by the vehicule (DMSO) at the same concentration than that used for the inhibitors.
The cytotoxicity activity of drags was expressed as the concentration inhibiting cell growth by 50% (EC50) calculated from the survival curves. […]

[3] = test system: rabbit reticulocyte 20S proteasome, trypsin-like (T-L) activity; test: 20S proteasome trypsin-like (T-L) activity, Boc-LRR-AMC hydrolysis; type: biochemical; design: key to Inhibition of trypsin-like activity (NI): NI: No Inhibition; conditions: rabbit 20S proteasome; for Inhibition of trypsin-like activity (NI): screened at 100 μM and 50 μM
Experimental: as §1, §2, §3, §4

[4] = target: rabbit reticulocyte 20S proteasome, post-acid (PA) activity (Oryctolagus cuniculus, UniProt G1T235); test: 20S proteasome post-acid (PA) activity, Z-LLE-βNA hydrolysis; type: biochemical; design: key to Inhibition of post-acid activity (NI): NI: No Inhibition; conditions: rabbit 20S proteasome; for Inhibition of post-acid activity (NI): screened at 100 μM and 50 μM
Sequence of rabbit reticulocyte 20S proteasome, post-acid (PA) activity (G1T235 entry or part of it): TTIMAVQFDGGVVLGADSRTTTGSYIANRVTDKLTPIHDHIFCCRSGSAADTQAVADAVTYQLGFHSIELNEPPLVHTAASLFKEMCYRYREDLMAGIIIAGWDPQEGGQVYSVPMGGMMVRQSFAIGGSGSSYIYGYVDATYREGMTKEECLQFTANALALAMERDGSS
Experimental: as §1, §2, §3, §4

[5] = target: human cathepsin B (Homo sapiens, UniProt P07858); test: Selectivity: inhibition of cathepsin B; type: biochemical; conditions: 100 μM compound
[6] = target: T2, rabbit reticulocyte 20S proteasome, chymotrypsin-like (CT-L) activity (Oryctolagus cuniculus, UniProt G1T4Q9); test: 20S proteasome chymotrypsin-like (CT-L) activity, Suc-LLVY-AMC hydrolysis; type: biochemical; conditions: rabbit 20S proteasome, pH 8, 37° C.
T2 construct: IC50 on chymotrypsin-like activity; other: rabbit 20S proteasome, pH 8, 37° C; Rabbit erythrocyte 20S proteasome was obtained from Boston Biochem, Cambridge, USA
T2 sequence (G1T4Q9 1-263): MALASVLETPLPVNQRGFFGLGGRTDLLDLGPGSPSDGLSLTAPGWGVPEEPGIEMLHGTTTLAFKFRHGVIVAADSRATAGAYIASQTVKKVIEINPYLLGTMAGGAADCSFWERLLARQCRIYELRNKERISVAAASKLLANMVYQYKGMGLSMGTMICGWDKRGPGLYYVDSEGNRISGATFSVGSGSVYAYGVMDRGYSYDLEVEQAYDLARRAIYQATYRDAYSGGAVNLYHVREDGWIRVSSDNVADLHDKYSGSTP
Experimental: as §1, §2, §3, §4

[7] = test system: HEK-293 cells; test: Cell viability, XTT assay, HEK-293; type: cell-based; conditions: Homo sapiens, HEK293, 48 h, read-out: EC50, concentration inhibiting cell growth by 50%
Experimental: as §5, §6, §7, §8, §9
The cytotoxicity activity of drags was expressed as the concentration inhibiting cell growth by 50% (EC50) calculated from the survival curves. The experimental data are fitted to the following equation, describing the relationship between % survival and drug concentration (C):
% cell survival=100−(Emax×C^n)/(C^n+EC50^n)
where C is the drug concentration; Emax is the maximum drug effect (%); EC50 is the concentration that produces one-half of the maximum effect; and n is the Hill constant, which describes the shape of the curve.

[8] = target: T3, human erythrocyte 20S proteasome, post-acid (PA) activity (Homo sapiens, UniProt P28072); test: 20S proteasome post-acid (PA) activity, Z-LLE-βNA hydrolysis; type: biochemical; design: key: NI: No Inhibition; conditions: screened at 100 and 50 μM
T3 construct: three activities of human erythrocyte 20S proteasome; from tissue; host or cells: human erythrocytes
Experimental: as §1, §4
(§10) Compounds 24, 25 and 31-35 were tested in duplicate against three activities of human erythrocyte 20S proteasome at 100 and 50 μM in the appropriate buffer (pH 7.5): 20 mM Tris HCl, 10% (v/v) glycerol, 0.01% (w/v) SDS and 2% DMSO (CT-L and PA activities); 20 mM Tris HCl, 10% (v/v) glycerol, and 2% DMSO (T-L activity). The inhibitory activities were analyzed as described above for compounds 1-23.

[9] = target: T4, human erythrocyte 20S proteasome, chymotrypsin-like (CT-L) activity (Homo sapiens, UniProt P28074); test: 20S proteasome chymotrypsin-like (CT-L) activity, Suc-LLVY-AMC hydrolysis; type: biochemical; conditions: pH 7.5
T4 construct: three activities of human erythrocyte 20S proteasome; from tissue; host or cells: human erythrocytes
Experimental: as §1, §4, §10

[10] = target: T5, human erythrocyte 20S proteasome, trypsin-like (T-L) activity (Homo sapiens, UniProt Q99436); test: 20S proteasome trypsin-like (T-L) activity, Boc-LRR-AMC hydrolysis; type: biochemical; design: key to Inhibition of trypsin-like activity (NI): NI: No Inhibition; conditions: screened at 100 and 50 μM
T5 construct: three activities of human erythrocyte 20S proteasome; from tissue; host or cells: human erythrocytes
Experimental: as §1, §4, §10

[11] = test system: cellular proteasome in HEK-293 cells; test: Inhibition of proteasome in a cell assay: accumulation of ubiquitinylated proteins (Western blot); type: cell-based, Human; conditions: 16 h, 10 μM
Experimental: Indeed, if the proteasomes are inhibited, in particular the proteasome 26S, the degradation of ubiquitinalyted proteins should be blocked, and those proteins should accumulate.
240 000 HEK-293 cells were incubated for 16 h, in presence of oxadiazole derivatives at the concentration of 10 μM.
After extraction of the proteins (centrifugation of lysed cells), the concentration of proteins in the sample was determined with the BCA (Bicinchoninic Acid) protein Assay.
3 μg of proteins for each sample were deposited into a SDS-PAGE gel at 8%.

Row | SMILES | IC50 [1] | Inhibition of trypsin-like activity (NI) [3] | Inhibition of post-acid activity (NI) [4] | EC50 [7] | also measured
1 | Cc1ccc(-c2noc(CN(C(=O)COc3ccc(C(C)C)cc3)C(C)C)n2)cc1 [Compound 1] | ~7 µM | NI | NI |  | EC50 [2]: 44 ± 3.8 µM
2 | Cc1cccc(-c2noc(CN(C(=O)COc3ccc(C(C)C)cc3)C(C)C)n2)c1 [Compound 2] | ~1 µM | NI | NI |  | EC50 [2]: 32 ± 3.6 µM
3 | COc1ccc(-c2noc(CN(C(=O)COc3cccc(C)c3)C(C)C)n2)cc1 [Compound 13] | 2.33 ± 0.28 µM |  | NI |  | % inhibition (inhibitor concentration) on trypsin-like activity ([3]; 100 μM inhibitor): 28% (100 μM); Inhibition of human cathepsin B (in words) [5]: no inhibition
4 | C=CCOc1ccc(C(=O)N(Cc2nc(-c3ccc(OC)c(OC)c3)no2)C(C)C)cc1 [Compound 19] |  |  | NI | 39.2 ± 2 µM | IC50 [6]: 3.51 ± 0.12 µM; Activation × of trypsin-like activity ([3]; 100 μM compound, fold activation): Activation × 11.5 (100 μM)
5 | O=C(Cc1cccc2ccccc12)Nc1cccc(-c2nnc(-c3ccccc3)o2)c1 [Compound 21] |  | NI |  | 26 ± 2.3 µM | IC50 [6]: 144 ± 22 µM; inhibition at 100 µM ([4]; 100 μM inhibitor, read-out: % inhibition (inhibitor concentration) on post-acid activity): 22%
6 | CC(C)N(Cc1nc(CCl)no1)C(=O)COc1ccc(Br)cc1 [Compound 31] |  |  |  | 16.1 ± 0.5 µM | Inhibition of post-acid activity (NI) [8]: NI; IC50 [9]: 2.69 ± 0.22 µM; Inhibition of trypsin-like activity (NI) [10]: NI
7 | CC(C)C[C@@H](C=O)NC(=O)[C@H](CC(C)C)NC(=O)[C@H](CC(C)C)NC(=O)OCc1ccccc1 [MG132] (Cbz-Leu-Leu-Leu-aldehyde) |  |  |  |  | Accumulation of ubiquitinylated proteins (anti-ubiquitin Western blot) [11]: induce an accumulation of ubiquitinalyted proteins
